In brackets after ≈: the same amount, converted by molar mass.
Experiments:
in vitro [1] = conditions: human, plasma
in vitro [2] = conditions: human
in vitro [3] = conditions: hepatocytes
in vitro [4] = conditions: SD, HW or BN, rat, plasma
physchem [5] = conditions: pH 7.4 buffer
physchem [6] = conditions: octan-1-ol/water

SMILES	fraction unbound at 5 h (in vitro [1]; PPB)	microsomal CLint (in vitro [2]; liver microsomes) [µL/min/mg]	hepatocyte CLint (in vitro [3]) [µL/min/1e6 cells]	fraction unbound at 5 h (in vitro [4])	solubility thermodynamic (physchem [5]) [µM]	logD (physchem [6]; pH 7.4, LogD7.4)	microsomal CLint (in vitro [2]; microsomes) [µL/min/mg]	fraction unbound at 5 h (in vitro [1])	logD (physchem [6]; pH 7.4)
Cc1c[nH]c(-c2cnc(NCCNc3ccc(C#N)cn3)nc2-c2ccc(Cl)cc2Cl)n1 [LADUVIGLUSIB]	0.0187	–	108	0.0447	0.4 (≈ 0.186 µg/mL)	3.86	96	–	–
Cc1ccc(S(=O)(=O)Nc2c(C(=O)N[C@@H](C)C(C)(C)C)c(C)nn2C2CCCC2)cc1	0.0214	–	8	0.0268	–	2	21	–	–
COc1ccc([C@]2(C#N)CC[C@@H](C(=O)O)CC2)cc1OC1CCCC1 [CILOMILAST]	0.0116	–	28	0.0606	–	0.76	13	–	–
Cc1cccc([C@H](C)c2c[nH]c(=S)[nH]2)c1C [REZATOMIDINE]	–	–	25.7	0.19	–	–	24.6	0.17	2.9
O=C1NC(=O)C(c2cnc3ccccn23)=C1c1cn2c3c(cccc13)CN(C(=O)N1CCOCC1)CC2	0.142	42	38	0.114	0.6 (≈ 0.298 µg/mL)	1.79	–	–	–
CC(C)c1nc2ccccc2n1-c1nc(N2CCOCC2)c2nc(OC3CN(C4CCS(=O)(=O)CC4)C3)n(C)c2n1	0.22	–	10	0.22	–	2.9	20.4	–	–
COCCC(C)n1nc(C)c(C(=O)N[C@@H](C)C(C)(C)C)c1NS(=O)(=O)c1ccc(C)cc1 (stereo partly specified)	0.101	–	9.9	0.276	–	0.78	3.9	–	–
C[C@]12Cc3cnn(-c4ccc(F)cc4)c3C=C1CC[C@@]2(O)CCc1ccc(F)cc1C(N)=O	0.0321	–	52.5	0.0046	–	3.8	105	–	–

The next lines start with results.

fraction unbound at 5 h (in vitro [1]; PPB)	microsomal CLint (in vitro [2]; liver microsomes) [µL/min/mg]	hepatocyte CLint (in vitro [3]) [µL/min/1e6 cells]	fraction unbound at 5 h (in vitro [4])	solubility thermodynamic (physchem [5]) [µM]	logD (physchem [6]; pH 7.4, LogD7.4)	microsomal CLint (in vitro [2]; microsomes) [µL/min/mg]	SMILES	fraction unbound at 5 h (in vitro [1])	logD (physchem [6]; pH 7.4)
0.0081	42	8	0.0374	1000 (≈ 455 µg/mL)	1.2	–	Cc1ccc(S(=O)(=O)Nc2c(C(=O)N[C@H](C)C(C)(C)C)c(C)nn2-c2ccccc2)cc1	–	–
0.0014	38	12	0.0214	1410 (≈ 639 µg/mL)	1.68	–	Cc1ccc(S(=O)(=O)Nc2c(C(=O)NC3CCCCC3)c(C)nn2-c2ccccc2)cc1	–	–
0.0532	25	5	0.0661	912 (≈ 437 µg/mL)	1.29	–	Cc1ccc(S(=O)(=O)Nc2c(C(=O)N[C@@H](C)C(C)(C)C)c(C)nn2C2CCSCC2)cc1	–	–
0.0053	99	37	0.0818	57.5 (≈ 35.5 µg/mL)	1.91	–	CC(C)(Cc1cccc(CC(=O)NCc2cccc(-c3ccc(O)cc3)c2)c1)NC[C@H](O)c1ccc(O)c(NS(C)(=O)=O)c1 [PF-00610355]	–	–
0.511	–	24	0.454	–	0.4	87.1	CCC[C@@H](CNC(=O)c1nc(Cl)c(N)nc1N)[N+](C)(C)CCCc1ccc(OC)cc1	–	–
0.0066	58	17	0.0224	–	1.94	–	Cc1ccc(S(=O)(=O)Nc2c(C(=O)NC3CCCCC3C)c(C)nn2-c2ccccc2)cc1 (stereo unspecified)	–	–
0.0836	6	< 3	0.139	–	0.61	–	COCC(C)n1nc(C)c(C(=O)N[C@@H](C)C(C)(C)C)c1NS(=O)(=O)c1ccc(C)cc1 (stereo partly specified)	–	–

Reference: ChEMBL document CHEMBL3301361, “Experimental in vitro DMPK and physicochemical data on a set of publicly disclosed compounds”
